Columns and labels:
[1] = Stability of synthesized T3-sulfate; assay type: physicochemical; details: when not stored in liquid form in appropriate buffer
Excerpt: Bacterial sulfatase (Sigma) was used as directed. We found little evidence of the presence of thyroxine sulfate in urine in our preliminary studies but significant levels of triiodothyronine-sulfate were present. To confirm our data, triodothyronine sulfate was synthesized by methods of Levitz (personal communication) for radioactive estrone glucuronide. T3-sulfate gave a unique spectrum with a major absorption maximum at 362 nm as compared to triiodothyronine whose major absorption maxima occurred at 318.

[2] = Conjugates of T4 and T3 in patients' urine by enzymatic hydrolysis and IMx measurement; set-up: species or system human
Experimental: Thyroxine glucuronidate in urine was hydrolysed with Sigma bacterial β-glucuronidase. The time interval for hydrolysis was tested from 1 to 24 hours under the conditions recommended by Sigma. It was also hydrolyzed by 0.2 N hydrochloric acid at pH 2 over a period of less than one hour.
Bacterial sulfatase (Sigma) was used as directed. […] To confirm our data, triodothyronine sulfate was synthesized by methods of Levitz (personal communication) for radioactive estrone glucuronide.

[3] = in vivo; cited from earlier work
[4] = Stability of urine standard sub-pools measured monthly; assay type: physicochemical; details: 2 ml vials stored at -20 degrees Centigrade
Experimental: These sub-pools were aliquoted into 2 ml vials and stored as above.

[5] = Stability of urinary T3 for time and temperature; assay type: physicochemical
[6] = stored with at least 20% (v/v) of buffer

N[C@@H](Cc1cc(I)c(Oc2ccc(OS(=O)(=O)O)c(I)c2)c(I)c1)C(=O)O [T3-sulfate, triiodothyronine-sulfate]
stability of T3-sulfate [1]: unstable and rapidly deteriorated
urinary concentration of conjugate relative to parent compound ([2]; human urine, before and after hydrolysis): about one-third to one-half

N[C@@H](Cc1cc(I)c(Oc2ccc(O)c(I)c2)c(I)c1)C(=O)O [T3, O-(4-hydroxy-3-iodophenyl)-3,5-diiodo-L-tyrosine]
metabolic clearance rate [3]: 24 L/d/70 kg
concentration in urine standard sub-pools over time [4]: unchanged for over a year
stability of T3 standards ([5]; all conditions of time and temperature): stable under all conditions
stability of urinary T3, frozen state [5, 6]: stable for months
stability of urinary T3, room temperature [5, 6]: over 3 days
stability of urinary T3, native state ([5]; without buffer, frozen and room temperature): deteriorated in both environments at an accelerated rate

N[C@@H](Cc1ccc(Oc2cc(I)c(O)c(I)c2)c(I)c1)C(=O)O [RT3]
metabolic clearance rate [3]: 111 L/d/70 kg

NC(Cc1cc(I)c(Oc2cc(I)c(O)c(I)c2)c(I)c1)C(=O)O (centres unmarked) [T4, O-(4-hydroxy-3,5-didiodophenyl)-3,5-diiodotyrosine]
metabolic clearance rate [3]: 1.2 L/d/70 kg
form of conjugation in urine [2]: almost exclusively as a glucuronide

Source: patent US20020076827A1, “Methods for diagnosing thyroid conditions and for monitoring thyroxine therapy” (priority 2000, published 2002)
